From patent publication US9802880B2, “Cannabigerol derivatives” (VIVACELL BIOTECHNOLOGY ESPAÑA S.L., priority 2014, dated 2017)

Tests used:
PPARg [1] = experiment: PPARg transactivation assay in human dermal primary fibroblasts; type: cell-based; conditions: 6 h treatment, FIG. 2
Source text: FIG. 2. PPARg Transactivation Assays in Human Dermal Primary Fibroblasts.

N2a cells = experiment: Neuroprotection assay, glutamate-induced excitotoxicity in N2a cells; type: cell-based; conditions: 1 h pre-incubation, then 5 mM glutamate 24 h, FIG. 5
Description: N2a cells were pre-incubated for 1 h with compounds (II) to (V) and (XII) at the indicated concentrations. Then, cells were treated for 24 h with 5 mM glutamate to induce excitotoxicity, or cytotoxicity in neuronal cells induced by neurotransmitters. Cell viability was quantified by MTT assay. […] Control was set as 100% and data were referred to that value.
Cultured N2A cells were pre-incubated with the compounds II, III, IV, V and XII at the indicated concentrations for 1 h and then treated with 5 mM glutamate to induce excitotoxicity during 24 h (FIG. 5). Cytotoxicity was determined by the MTT method as described in example 3. Results are shown as mean±S.D. from at least three independent experiments, and expressed as percentage of cell viability against the control sample (−). Control was set as 100% and data were referred to that value.

3NP-lesioned mice = experiment: Huntington's disease 3NP model, behavioral score; type: in vivo, C57BL/6 mice; conditions: 10 mg/kg i.p., four injections, FIG. 9
Description: Mice were subjected to behavioral tests for determining their neurological status after the treatment with compounds I (10 mg/kg) (A), III (10 mg/kg) (B) and XII (10 mg/kg) (C). Hind limb clasping, Locomotor activity, Hind limb dystonia and Truncal Dystonia were rated from 0 to 2 based on severity: a score of 0 typically indicates normal function and 2 seriously affected. Values are expressed as means±SEM for 8 animals per group.
Lesions of the striatum were induced with 3-NP in adult (16 week old; 30 g) male C57BL/6 mice (Harlan Ibérica, Barcelona, Spain). To this end, mice were subjected to seven intraperitoneal (i.p.) injections of 3NP (one injection each 12 hours) at a dose of 50 mg/kg (prepared in phosphate-buffered saline) for 3 days. These animals and their respective non-lesioned controls were used for pharmacological studies with compounds CBG-Q (compound I) and with compounds III and XII (FIG. 9). At least 6-8 animals were used per experimental group. Treatments consisted of four i.p. injections of the compounds at the indicated doses (one injection each 24 hours), or vehicle (DMSO 0.2%, BSA 5% in PBS) 30 min before the injections of 3NP. All animals were euthanized 12 hours after the last 3NP injection. Once euthanized, animals were dissected and their brains were rapidly removed. The right hemisphere was used to dissect the striatum, which was quickly frozen in RNAlater (Sigma-Aldrich, Germany) to analyzed inflammatory markers were by Real Time PCR. The left hemisphere was fixed in fresh 4% paraformaldehyde (in 0.1M phosphate buffered-saline) for 48 hours at 4° C. and embedded in paraffin wax for histological analysis. Mice were subjected to behavioral tests for determining their neurological status. We evaluated the general locomotor activity, the hindlimb clasping and dystonia, and the truncal dystonia. All behavioral tests were conducted prior to drug injections to avoid acute effects of the compounds under investigation.

6-OHDA-lesioned mice = experiment: Parkinson's disease 6-OHDA model, rotarod and actimeter; type: in vivo, C57BL/6 mice; conditions: 6-OHDA mice, chronic intraperitoneal treatment 10 mg/ml, 14 days, FIG. 13
Description: C57BL/6 mice were unilaterally injected intracerebroventricullarly with 6-hydroxydopamine (6-OHDA) or saline (control mice) and subjected to chronic intraperitoneal treatment with compound III (10 mg/ml) or vehicle (14 days), starting 16 h after the 6-OHDA injection. Motor coordination was evaluated by rotarod performance and motor activity was evaluated using a computer-aided actimeter. Values are expressed as means±SEM for 6 animals per group.
C57BL/6 mice pretreated intracerebroventricularly (i.c.v.) were anesthetized with an intraperitoneal (i.p.) injection of 200 mg′kg of 2,2,2-tribromoethanol (Sigma-Aldrich) and placed in a stereotaxic frame with a mouse adapter (David Kopf Instruments, Tujunga, Calif., USA). […] Motor coordination was evaluated in the rotarod test (Ugo Basile, Rome, Italy) at crescent speed. […] The latency to fall off the rod was measured on consecutive days in lesioned mice following the compound III administration or vehicle control. Motor activity (ambulatory activity, mean velocity, resting time, fast movements and number of rearings) was evaluated using a computer-aided actimeter (FIG. 13).

PPARg [2] = test system: PPARg

SMILES: CCCCCC1=C(NCC)C(=O)C(C/C=C(\C)CCC=C(C)C)=C(O)C1=O [Compound III, 6-(3,7-dimethyl-octa-2,6-dienyl)-5-hydroxy-3-pentyl-2-ethylamino-[1,4]benzoquinone]
- PPARg activation (fold) compared with CBG-Q (PPARg [1]): higher efficiency than CBG-Q
- protection from glutamate-induced cytotoxicity (cell viability, MTT) (N2a cells): protect neuronal cells from glutamate-induced apoptosis
- clinical symptoms induced by 3-NP intoxication (hind limb clasping, locomotor activity, hind limb dystonia, truncal dystonia) (3NP-lesioned mice): clearly alleviates such symptomatology
- motor symptoms (ambulatory activity, mean velocity, resting time, fast movement, number of rearing, rotarod performance) (6-OHDA-lesioned mice): almost completely suppressed
- PPARg transactivation (luciferase activity, fold induction over untreated cells) (PPARg [2]): most active compounds
